Target: T1, human recombinant HDAC6 (Homo sapiens, UniProt Q9UBN7)
T1 construct: purchased Calbiochem 382180
T1 sequence (Q9UBN7 1-1215): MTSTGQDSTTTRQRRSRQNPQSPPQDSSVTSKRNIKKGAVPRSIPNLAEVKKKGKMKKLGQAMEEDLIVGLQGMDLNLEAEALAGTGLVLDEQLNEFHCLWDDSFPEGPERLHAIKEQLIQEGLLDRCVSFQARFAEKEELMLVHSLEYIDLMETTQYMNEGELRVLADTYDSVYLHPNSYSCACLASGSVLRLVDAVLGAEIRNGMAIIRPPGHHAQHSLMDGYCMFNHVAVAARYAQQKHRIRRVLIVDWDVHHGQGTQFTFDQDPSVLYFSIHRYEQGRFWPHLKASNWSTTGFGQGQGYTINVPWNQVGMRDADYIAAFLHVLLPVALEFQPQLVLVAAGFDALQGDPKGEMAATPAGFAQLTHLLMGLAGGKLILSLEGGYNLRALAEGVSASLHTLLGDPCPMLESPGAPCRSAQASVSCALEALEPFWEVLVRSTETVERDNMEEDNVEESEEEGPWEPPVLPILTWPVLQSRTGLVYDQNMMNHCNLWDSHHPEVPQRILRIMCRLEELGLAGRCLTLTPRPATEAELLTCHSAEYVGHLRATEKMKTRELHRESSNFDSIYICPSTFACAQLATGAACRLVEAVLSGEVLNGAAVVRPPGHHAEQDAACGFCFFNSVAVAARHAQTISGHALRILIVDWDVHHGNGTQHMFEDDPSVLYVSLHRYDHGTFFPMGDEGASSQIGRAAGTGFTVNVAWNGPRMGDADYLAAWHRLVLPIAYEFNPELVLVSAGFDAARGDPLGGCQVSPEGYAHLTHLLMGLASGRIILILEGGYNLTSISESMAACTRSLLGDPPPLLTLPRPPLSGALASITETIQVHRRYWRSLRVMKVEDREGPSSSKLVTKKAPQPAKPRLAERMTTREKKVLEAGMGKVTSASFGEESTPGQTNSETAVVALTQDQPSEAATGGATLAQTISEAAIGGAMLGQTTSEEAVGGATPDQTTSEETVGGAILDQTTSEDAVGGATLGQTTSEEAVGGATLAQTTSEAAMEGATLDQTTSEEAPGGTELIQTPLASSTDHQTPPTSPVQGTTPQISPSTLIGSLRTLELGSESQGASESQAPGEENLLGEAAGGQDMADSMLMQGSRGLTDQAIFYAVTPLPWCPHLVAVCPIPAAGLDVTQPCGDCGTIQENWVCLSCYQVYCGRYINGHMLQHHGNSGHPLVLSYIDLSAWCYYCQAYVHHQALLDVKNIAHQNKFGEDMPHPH
Experiment: HDAC6 enzyme activity inhibition assay (HDAC Fluorimetric Drug Discovery Kit)
Assay type: biochemical
Settings: for HDAC6 selectivity (fold): HDAC6 over HDAC1; for IC50: human recombinant HDAC6, same protocol as HDAC1, read-out: HDAC6
Description: In order to examine the HDAC6 selectivity of the compounds of formula I of the present invention by HDAC1 and HDAC6 enzymatic activity inhibition assays, an experiment was performed using a conventional substance as a control.
HDAC enzyme activity was measured using a HDAC Fluorimetric Drug Discovery Kit (BML-AK511, 516, Enzo Life Science). For the HDAC1 enzyme activity test, human recombinant HDAC1 (BML-SE456) was used as an enzyme source, and Fluor de Lys®-“SIRT1 (BNL-KI177) was used as a substrate. A 5-fold dilution of the compound was seeded into a 96-well plate, and then 0.3 μg of the enzyme and 10 μM of the substrate were added to each well of the plate and allowed to react at 30° C. for 60 minutes. Then, Fluor de Lys®-Developer II (BML-KI176) was added thereto and allowed to react for 30 minutes, after which the fluorescence value (Ex 360, Em 460) was measured using a multi-plate reader (Flexstation 3, Molecular Device). The HDAC6 enzyme was tested using human recombinant HDAC6 (382180) (Calbiochem) according to the same protocol as the HDAC1 enzyme activity test method. Based on the resulting values, each IC5, value was calculated using GraphPad Prism4.0 program.

HDAC6 selectivity (fold) | IC50 [nM] | Compound
91 | 110 | CN1CCN(C(=O)N(Cc2ccc(-c3nnc(C(F)(F)F)o3)cc2)c2ccccc2)CC1 [Compound 21285, 4-methyl-N-phenyl-N-(4-(5-(trifluoromethyl)-1,3,4-oxadiazol-2-yl)benzyl)piperazine-1-carboxamide]
145 | 69 | O=C(N1CCOCC1)N(Cc1ccc(-c2nnc(C(F)(F)F)o2)cc1F)c1ccccc1 [Compound 21318, N-(2-fluoro-4-(5-(trifluoromethyl)-1,3,4-oxadiazol-2-yl)benzyl)-N-phenylmorpholine-4-carboxamide]
52 | 192 | O=C(N1CCOCC1)N(Cc1ccc(-c2nnc(C(F)(F)F)o2)c(F)c1)c1ccccc1 [Compound 21319, N-(3-fluoro-4-(5-(trifluoromethyl)-1,3,4-oxadiazol-2-yl)benzyl)-N-phenylmorpholine-4-carboxamide]
204 | 49 | O=C(N1CCOCC1)N(Cc1ccc(-c2nnc(C(F)F)o2)cc1)c1ccccc1 [Compound 21325, N-(4-(5-(difluoromethyl)-1,3,4-oxadiazol-2-yl)benzyl)-N-phenylmorpholine-4-carboxamide]
1 | – | O=C(N1CCOCC1)N(Cc1ccc(CCc2nnc(C(F)(F)F)o2)cc1)c1ccccc1 [Compound 21327, N-phenyl-N-(4-(2-(5-(trifluoromethyl)-1,3,4-oxadiazol-2-yl)ethyl)benzyl)morpholine-4-carboxamide]
1 | – | O=C(N1CCOCC1)N(Cc1cccc(-c2nnc(C(F)(F)F)o2)c1)c1ccccc1 [Compound 21329, N-phenyl-N-(3-(5-(trifluoromethyl)-1,3,4-oxadiazol-2-yl)benzyl)morpholine-4-carboxamide]
1 | – | O=C(N1CCOCC1)N(Cc1ccc(-c2nnc(C(F)(F)F)o2)nc1)c1ccccc1 [Compound 21333, N-phenyl-N-((6-(5-(trifluoromethyl)-1,3,4-oxadiazol-2-yl)pyridin-3-yl)methyl)morpholine-4-carboxamide]
105 | 95 | O=C(N1CCOCC1)N(Cc1ccc(-c2nnc(C(F)(F)F)o2)cn1)c1ccccc1 [Compound 21336, N-phenyl-N-((5-(5-(trifluoromethyl)-1,3,4-oxadiazol-2-yl)pyridin-2-yl)methyl)morpholine-4-carboxamide]
357 | 28 | O=C(N1CCOCC1)N(Cc1ccc(-c2nnc(C(F)F)o2)cc1F)c1ccccc1 [Compound 21337, N-(4-(5-(difluoromethyl)-1,3,4-oxadiazol-2-yl)-2-fluorobenzyl)-N-phenylmorpholine-4-carboxamide]
12 | 836 | O=C(NC1CCC1)N(Cc1ccc(-c2nnc(C(F)(F)F)o2)cc1)c1ccccc1 [Compound 21340, 3-Cyclobutyl-1-phenyl-1-(4-(5-(trifluoromethyl)-1,3,4-oxadiazol-2-yl)benzyl)urea]
8 | 1190 | O=C(NC1CCCC1)N(Cc1ccc(-c2nnc(C(F)(F)F)o2)cc1)c1ccccc1 [Compound 21341, 3-Cyclopentyl-1-phenyl-1-(4-(5-(trifluoromethyl)-1,3,4-oxadiazol-2-yl)benzyl)urea]
5 | 1990 | O=C(NC1CCCCC1)N(Cc1ccc(-c2nnc(C(F)(F)F)o2)cc1)c1ccccc1 [Compound 21342, 3-Cyclohexyl-1-phenyl-1-(4-(5-(trifluoromethyl)-1,3,4-oxadiazol-2-yl)benzyl)urea]
1 | 10700 | COc1cc(-c2nnc(C(F)(F)F)o2)ccc1CN(C(=O)N1CCOCC1)c1ccccc1 [Compound 21343, N-(2-methoxy-4-(5-(trifluoromethyl)-1,3,4-oxadiazol-2-yl)benzyl)-N-phenylmorpholine-4-carboxamide]
12 | 830 | O=C(N1CCN(Cc2ccccc2)CC1)N(Cc1ccc(-c2nnc(C(F)(F)F)o2)cc1)c1ccccc1 [Compound 21344, 4-Benzyl-N-phenyl-N-(4-(5-(trifluoromethyl)-1,3,4-oxadiazol-2-yl)benzyl)piperazine-1-carboxamide]
54 | 185 | COCCN1CCN(C(=O)N(Cc2ccc(-c3nnc(C(F)(F)F)o3)cc2)c2ccccc2)CC1 [Compound 21345, 4-(2-Methoxyethyl)-N-phenyl-N-(4-(5-(trifluoromethyl)-1,3,4-oxadiazol-2-yl)benzyl)piperazine-1-carboxamide]
58 | 173 | CCN1CCN(C(=O)N(Cc2ccc(-c3nnc(C(F)(F)F)o3)cc2)c2ccccc2)CC1 [Compound 21346, 4-Ethyl-N-phenyl-N-(4-(5-(trifluoromethyl)-1,3,4-oxadiazol-2-yl)benzyl)piperazine-1-carboxamide]
55 | 183 | CC(C)N1CCN(C(=O)N(Cc2ccc(-c3nnc(C(F)(F)F)o3)cc2)c2ccccc2)CC1 [Compound 21347, 4-Isopropyl-N-phenyl-N-(4-(5-(trifluoromethyl)-1,3,4-oxadiazol-2-yl)benzyl)piperazine-1-carboxamide]
1 | 8360 | O=C(N1CCOCC1)N(CCc1ccc(-c2nnc(C(F)(F)F)o2)cc1)c1ccccc1 [Compound 21348, N-phenyl-N-(4-(5-(trifluoromethyl)-1,3,4-oxadiazol-2-yl)phenethyl)morpholine-4-carboxamide]
23 | 430 | O=C(N1CCC1)N(Cc1ccc(-c2nnc(C(F)(F)F)o2)cc1)c1ccccc1 [Compound 21349, N-phenyl-N-(4-(5-(trifluoromethyl)-1,3,4-oxadiazol-2-yl)benzyl)azetidine-1-carboxamide]
19 | 530 | O=C(N1CCCC1)N(Cc1ccc(-c2nnc(C(F)(F)F)o2)cc1)c1ccccc1 [Compound 21350, N-phenyl-N-(4-(5-(trifluoromethyl)-1,3,4-oxadiazol-2-yl)benzyl)pyrrolidine-1-carboxamide]
38 | 261 | O=C(N1CCCCC1)N(Cc1ccc(-c2nnc(C(F)(F)F)o2)cc1)c1ccccc1 [Compound 21351, N-phenyl-N-(4-(5-(trifluoromethyl)-1,3,4-oxadiazol-2-yl)benzyl)piperidine-1-carboxamide]
9 | 1100 | CC(C)(C)OC(=O)N1CCN(C(=O)N(Cc2ccc(-c3nnc(C(F)(F)F)o3)cc2)c2ccccc2)CC1 [Compound 21352, Tert-butyl 4-(phenyl(4-(5-(trifluoromethyl)-1,3,4-oxadiazol-2-yl)benzyl)carbamoyl)piperazine-1-carboxylate]
14 | 720 | CCNC(=O)N(Cc1ccc(-c2nnc(C(F)(F)F)o2)cc1)c1ccccc1 [Compound 21353, 3-Ethyl-1-phenyl-1-(4-(5-(trifluoromethyl)-1,3,4-oxadiazol-2-yl)benzyl)urea]
26 | 380 | CCCNC(=O)N(Cc1ccc(-c2nnc(C(F)(F)F)o2)cc1)c1ccccc1 [Compound 21354, 1-Phenyl-3-propyl-1-(4-(5-(trifluoromethyl)-1,3,4-oxadiazol-2-yl)benzyl)urea]
